Assay results as given in patent US20080153792A1, “Drug Identification and Treatment Method” (priority 2006, published 2008).
“Also recorded” adds a separate entry of the source. Where two headings read alike, the source gives them in different places.

Columns and labels:
NF-κB = test: NF-κB-bla THP-1 β-lactamase reporter assay; assay type: cell-based, human
female SJL mice, EAE = test: experimental autoimmune encephalomyelitis (EAE), PLP-induced, Example 23; assay type: in vivo, mouse; details: for course of EAE compared to vehicle-treated mice: 0.1 mg q.d. po from clinical onset; for mean cumulative score, treatment period (day 1 to 30): vehicle 24.8±7.8; for mean cumulative score, follow-up period (day 31 to day 54): vehicle 22.7±15.8
[1] = test system: CD1 male mice, carrageenan-λ induced pleurisy; test: carrageenan-λ induced lung (pleural cavity) inflammation in mice; assay type: in vivo, mouse; details: for number of neutrophils relative to untreated carrageenan-λ control (100%): 4 h after carrageenan
MG-63 cells = test: reversal of glucocorticoid effects in MG-63 osteosarcoma cells; assay type: cell-based, human
[2] = Homo sapiens, THP-1, read-out: IC50, this protocol
[3] = anti-inflammatory activity in this protocol, read-out: IC50
[4] = Homo sapiens, THP-1, read-out: IC50 for inhibition of NF-κB activation, after LPS stimulation, 50% of the maximum inhibition the compound can induce, averages of 2-4 assays
[5] = compounds increased NF-κB activity, read-out: IC50 of compounds that increased NF-κB activity
[6] = 0.1 mg q.d. po from clinical onset to day 30

Molecule: TNFα
- EC50 for activation of NF-κB (NF-κB; positive control assays, 1 hour β-lactamase substrate incubation): 0.20 ng/mL

Molecule: C[C@]12CC[C@H](O)C[C@@H]1CC[C@@H]1[C@@H]2CC[C@]2(C)[C@@H](O)C(=NO)C[C@@H]12 [5α-androstane-3β,17β-diol-16-oxime]
- course of EAE compared to vehicle-treated mice (female SJL mice, EAE): very similar to that observed in the vehicle-treated mice

Molecule: CC(=O)O[C@@H]1C[C@H]2[C@@H]3[C@@H](O)C=C4C[C@@H](O)CC[C@]4(C)[C@H]3CC[C@]2(C)[C@H]1O [16α-acetoxy-3β,7β,17β-trihydroxyandrost-5-ene]
- IC50 (NF-κB; Homo sapiens, THP-1, after LPS stimulation, 50% of the maximum inhibition the compound can induce, averages of 2-4 assays, read-out: IC50 for inhibition of NF-κB activation): > 10 µM

Molecule: C[C@]12CC[C@H]3[C@@H](CCC4C[C@H](O)CC[C@@]43C)[C@@H]1C[C@H](O)[C@@H]2O (stereo partly drawn) [3α,16β,17β-trihydroxyandrostane]
- number of neutrophils relative to untreated carrageenan-λ control (100%) ([1]; 0.001 mg s.c. 24 h and 1 h before carrageenan-λ): 95%
- number of neutrophils relative to untreated carrageenan-λ control (100%) ([1]; 0.01 mg s.c. 24 h and 1 h before carrageenan-λ): 50%
- number of neutrophils in the pleura ([1]; 0.1 mg and 0.01 mg doses s.c.): significant reduction
- number of neutrophils relative to untreated carrageenan-λ control (100%) ([1]; 0.1 mg s.c. 24 h and 1 h before carrageenan-λ): 42%
- IC50 (NF-κB; [2]): 19 µM

Molecule: CC12CCC(O)CC1=CC(O)C1C2CCC2(C)C1CCC2(O)C(F)(F)F (stereo not drawn) [3β,7β,17β-trihydroxy-17α-trifluoromethylandrost-5-ene]
- IC50 (NF-κB; after LPS stimulation, 50% of the maximum inhibition the compound can induce, averages of 2-4 assays, read-out: IC50 for inhibition of NF-κB activation): > 10 µM
- osteoprotegerin levels in the presence of 30 nM dexamethasone (MG-63 cells; 1 μM compound): normal or basal osteoprotegerin levels

Molecule: C[C@]12CC[C@H](O)CC1=CC[C@@H]1[C@@H]2CC[C@]2(C)C(=O)[C@@H](Br)C[C@@H]12 [16β-bromo-3β-hydroxyandrost-5-ene-17-one]
- IC50 (NF-κB; [2]): > 10 µM

Molecule: C[C@]12CC[C@H]3[C@@H](CCC4=C[C@H](O)CC[C@@]43C)[C@@H]1CC[C@@H]2O [3α,17β-dihydroxyandrost-4-ene]
- dexamethasone induced 11β-HSD mRNA (MG-63 cells; similar protocols): decrease
- reversal of dexamethasone-induced suppression of IL-8 and IL-6 (MG-63 cells; similar protocols): statistically significant reversal

Molecule: C[C@]12CC[C@H]3[C@@H](CC=C4C[C@@H](O)CC[C@@]43C)[C@@H]1C[C@@H](Br)[C@@H]2O [16α-bromo-3β,17β-dihydroxyandrost-5-ene]
- IC50 (NF-κB; [2]): > 10 µM

Molecule: C[C@]12CC[C@H]3[C@@H](CC=C4C[C@](O)(C(F)(F)C(F)(F)F)CC[C@@]43C)[C@@H]1CC[C@@H]2O [3α-pentafluoroethylandrost-5-ene-3β,17β-diol]
- IC50 (NF-κB; [3]): 0.017 µM
- maximum NF-κB inhibition (NF-κB; this protocol): 50%

Molecule: C[C@]12CC[C@H](O)CC1CC[C@@H]1[C@@H]2CC[C@]2(C)C(=NO)[C@@H](O)C[C@@H]12 (stereo partly drawn) [androstane-3β,16β-diol-17-oxime]
- IC50 (NF-κB; this protocol, read-out: IC50): 1.9 µM

Molecule: C[C@]12CC[C@H]3[C@@H]([C@H](O)C=C4C[C@@H](O)CC[C@@]43C)[C@@H]1CC[C@@H]2O [3β,7α,17β-trihydroxyandrost-5-ene]
- IC50 (NF-κB; [4]): > 10 µM

Molecule: C[C@]12CC[C@H]3[C@@H](CCC4C[C@@H](O)CC[C@@]43C)[C@@H]1CC[C@@H]2C(=O)CN (stereo partly drawn) [17β-glycylandrostane-3β-ol]
- IC50 (NF-κB; [2]): 0.42 µM

Molecule: C[C@]12CC[C@H]3[C@@H](CCC4C[C@H](O)CC[C@@]43C)[C@@H]1C[C@@H](O)[C@@H]2O (stereo partly drawn) [3α,16α,17β-trihydroxyandrostane]
- IC50 (NF-κB; [2]): 6.9 µM

Molecule: C[C@]12CC[C@H]3[C@@H](CCC4C[C@@H](C(=O)CN)CC[C@@]43C)[C@@H]1CC[C@@H]2O (stereo partly drawn) [3β-glycylandrostane-17β-ol]
- IC50 (NF-κB; Homo sapiens, THP-1, read-out: IC50, anti-inflammatory activity in this protocol): 0.001 µM

Molecule: C[C@]12CC[C@H](O)CC1=C[C@@H](O)[C@@H]1[C@@H]2CC[C@]2(C)C(=O)[C@H](O)C[C@@H]12 [androst-5-ene-3β,7α,16α-triol-17-one]
- NF-κB activity compared to control cells (NF-κB; compound increased NF-κB activity): 140%
- IC50 (NF-κB; [5]): 0.0013 µM

Molecule: C[C@]12CC[C@H](O)C[C@@H]1CC[C@@H]1[C@@H]2CC[C@]2(C)C(=O)[C@@H](Br)C[C@@H]12 [16β-bromoepiandrosterone]
- maximum NF-κB inhibition (NF-κB; this protocol): 100%

Molecule: C[C@]12CC[C@H](O)CC1=CC[C@@H]1[C@@H]2CC[C@@]2(C)[C@H]1CC[C@@]2(O)C(F)(F)F [17α-trifluoromethylandrost-5-ene-3β,17β-diol]
- course of EAE compared to vehicle-treated mice (female SJL mice, EAE): significantly improved course of EAE

Molecule: C[C@@]1(O)CC[C@@]2(C)[C@@H](CC[C@@H]3[C@@H]2CC[C@@]2(C)[C@H]3CC[C@]2(C)O)C1 [3β,17α-dimethylandrostane-3α,17β-diol]
- IC50 (NF-κB; [5]): 0.04 µM

Molecule: CC12CCC(O)CC1CCC1C2CCC2(C)C1CCC2(O)C(F)(F)F (stereo not drawn) [17α-trifluoromethylandrostane-3α,17β-diol]
- IC50 (NF-κB; [3]): 0.19 µM

Molecule: C[C@]12CC[C@H]3[C@@H](CC=C4C[C@@H](O)CC[C@@]43C)[C@@H]1CC[C@@H]2OC(=O)CCC(=O)O [androst-5-ene-3β-ol-17β-succinyl ester]
- IC50 (NF-κB; [3]): 0.0002 µM

Molecule: C[C@]12CC[C@H](O)CC1=CC[C@@H]1[C@@H]2[C@H](O)C[C@]2(C)C(=O)CC[C@@H]12 [3β,11α-dihydroxy-17-oxoandrost-5-ene]
- IC50 (NF-κB; [4]): > 10 µM

Molecule: C#C[C@@]1(O)CC[C@H]2[C@@H]3[C@@H](O)C=C4C[C@@H](O)CC[C@]4(C)[C@H]3CC[C@@]21C [17β-ethynylandrost-5-ene-3β,7β,17α-triol]
- EAE incidence at the end of the treatment period (female SJL mice, EAE; 0.1 mg q.d. po): 57.1%
- course of EAE compared to vehicle-treated mice (female SJL mice, EAE): trend toward reduced cumulative score and duration
- duration of the disease (female SJL mice, EAE; 0.1 mg q.d. po from clinical onset to day 30, vehicle 12.3±4.3): 7 ± 7.9 days
- mean cumulative score, treatment period (day 1 to 30) (female SJL mice, EAE; [6]): 14.9±17.6
- EAE incidence at the end of the follow-up period (female SJL mice, EAE; after end of treatment): 85.7%
- mean cumulative score, follow-up period (day 31 to day 54) (female SJL mice, EAE; after end of treatment): 18.4±20.6

Molecule: C[C@]12C[C@H](O)[C@H]3[C@@H](CC=C4C[C@@H](O)CC[C@@]43C)[C@@H]1CC[C@@H]2O [androst-5-ene-3β, 11β,17β-triol]
- IC50 (NF-κB; [2]): > 10 µM

Molecule: C#C[C@]1(O)CC[C@H]2[C@@H]3CCC4=CC(=O)CC[C@]4(C)[C@H]3CC[C@@]21C [17α-ethynylandrost-4-ene-3-one-17β-ol]
- maximum NF-κB inhibition (NF-κB; this protocol): 80%
- IC50 (NF-κB; this protocol, read-out: IC50): 2.9 µM

Molecule: C[C@]12CC[C@H]3[C@@H](C(=NO)C=C4C[C@@H](O)CC[C@@]43C)[C@@H]1CC[C@@H]2O [androst-5-ene-3β,17β-diol-7-oxime]
- reversal of the decrease in osteoprotegerin in the presence of 30 nM dexamethasone (MG-63 cells; concentration not given): partially reversed

Molecule: C[C@]12CC[C@H]3[C@@H](CC=C4C[C@](O)(C(F)(F)F)CC[C@@]43C)[C@@H]1CC[C@@H]2O [3α-trifluoromethylandrost-5-ene-3β,17β-diol]
- course of EAE compared to vehicle-treated mice (female SJL mice, EAE): significantly improved course of EAE
- mean cumulative score, treatment period (day 1 to 30) (female SJL mice, EAE; [6]): 11.2±4.8
- mean cumulative score, follow-up period (day 31 to day 54) (female SJL mice, EAE; after end of treatment): 10.8±10.3

Molecule: C[C@]12CC[C@H]3[C@@H](CC=C4C[C@@H](O)CC[C@@]43C)[C@@H]1CC[C@H]2O [3β,17α-dihydroxyandrost-5-ene]
- IC50 (NF-κB; [2]): > 10 µM

Molecule: Cc1cc(C)c(/C=C2\C(=O)Nc3ccccc32)[nH]1 [SU5416, Z-3-[(2,4-dimethylpyrrol-5-yl)methylidenyl]-2-indolinone, reference compound]
- course of EAE compared to vehicle-treated mice (female SJL mice, EAE): very similar to that observed in the vehicle-treated mice; also recorded: ineffective
- mean cumulative score, treatment period (day 1 to 30) (female SJL mice, EAE; [6]): 25.5±8.9
- mean cumulative score, follow-up period (day 31 to day 54) (female SJL mice, EAE; after end of treatment): 35.5±13.2

Molecule: C[C@]12CCCCC1=CC[C@@H]1[C@@H]2CC[C@]2(C)C(=O)[C@H](F)C[C@@H]12 [16α-fluoroandrost-5-ene-17-one]
- IC50 (NF-κB; [2]): 30 µM

Molecule: C[C@]12CCCCC1=C[C@H](O)[C@@H]1[C@@H]2CC[C@]2(C)C(=O)[C@@H](F)C[C@@H]12 [16β-fluoroandrost-5-ene-7β-ol-17-one]
- IC50 (NF-κB; [3]): 0.0015 µM

Molecule: C[C@]12CC[C@H](O)CC1=C[C@H](O)[C@@H]1[C@@H]2CC[C@@]2(C)[C@H]1CC[C@]2(C)O [3β,7β,17β-trihydroxy-17α-methylandrost-5-ene]
- osteoprotegerin levels in the presence of 30 nM dexamethasone (MG-63 cells; 10 nM compound): normal osteoprotegerin levels

Molecule: CC(=O)O[C@H]1CC[C@@]2(C)C(=C[C@H](O)[C@H]3[C@@H]4CC[C@H](O)[C@@]4(C)CC(=O)[C@@H]32)C1 [3β-acetoxy-7β,17β-dihydroxy-11-oxoandrost-5-ene]
- IC50 (NF-κB; [2]): 1 µM
- maximum NF-κB inhibition (NF-κB; this protocol): 65%

Molecule: C[C@]12CC[C@H]3[C@@H](CC=C4C[C@H](O)CC[C@@]43C)[C@@H]1CC[C@@H]2O [androst-5-ene-3α,17β-diol]
- IC50 (NF-κB; [2]): > 10 µM

Molecule: C[C@]12CC[C@H](O)CC1CC(=O)[C@@H]1[C@@H]2CC[C@]2(C)C(=O)CC[C@@H]12 (stereo partly drawn) [3β-hydroxyandrostane-7,17-dione]
- IC50 (NF-κB; [2]): > 10 µM

Molecule: C[C@]12CCCCC1CC[C@@H]1[C@@H]2CC[C@]2(C)C(=O)[C@H](F)C[C@@H]12 (stereo partly drawn) [16α-fluoroandrostane-17-one]
- IC50 (NF-κB; [2]): > 10 µM

Molecule: CC12CCC(O)(C(F)(F)C(F)(F)F)C=C1CCC1C2CCC2(C)C(O)CCC12 (stereo not drawn) [3α-pentafluoroethylandrost-4-ene-3β,17β-diol]
- IC50 (NF-κB; [3]): 0.0031 µM

Molecule: C[C@]12C[C@H](O)[C@H]3[C@@H]([C@@H](O)C=C4C[C@@H](O)CC[C@@]43C)[C@@H]1CC[C@@H]2O [3β,7β,11β,17β-tetrahydroxyandrost-5-ene]
- IC50 (NF-κB; [4]): > 10 µM
